Columns and labels:
Type in all cases: biochemical
[1] = molecular target: T1, propionyl-CoA carboxylase from Methylobacterium extorquens (PCCMe) variant PCCMe_D407I_Y143H (pccA SEQ ID NO: 2; pccB_D407I_Y143H SEQ ID NO: 6) (Methylorubrum extorquens, UniProt C5AP75+C5AWU5, D407I/Y143H); experiment: PCCMe_D407I_Y143H activity for conversion of glycolyl-CoA into tartronyl-CoA (reaction 3#), coupled ATP hydrolysis (PK/LDH) assay; details: 37° C., pH 7.7, ATP hydrolysis assay, 0.125-3 mM glycolyl-CoA; n=2
T1 sequence (C5AP75 1-510 Y143H/D407I): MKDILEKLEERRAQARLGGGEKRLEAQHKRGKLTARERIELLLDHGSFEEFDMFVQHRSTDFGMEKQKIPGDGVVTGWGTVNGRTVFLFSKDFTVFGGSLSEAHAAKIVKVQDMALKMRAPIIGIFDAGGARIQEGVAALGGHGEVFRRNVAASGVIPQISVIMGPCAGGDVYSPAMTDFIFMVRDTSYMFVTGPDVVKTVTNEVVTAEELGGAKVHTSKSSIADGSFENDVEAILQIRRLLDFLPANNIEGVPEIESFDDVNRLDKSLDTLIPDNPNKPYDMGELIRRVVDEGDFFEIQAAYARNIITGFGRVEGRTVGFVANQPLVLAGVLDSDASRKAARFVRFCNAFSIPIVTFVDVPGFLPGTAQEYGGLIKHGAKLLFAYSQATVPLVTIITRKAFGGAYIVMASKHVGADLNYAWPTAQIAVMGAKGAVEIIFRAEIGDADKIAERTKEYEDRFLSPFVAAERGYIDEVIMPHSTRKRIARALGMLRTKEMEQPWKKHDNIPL
T1 sequence (C5AWU5 1-667): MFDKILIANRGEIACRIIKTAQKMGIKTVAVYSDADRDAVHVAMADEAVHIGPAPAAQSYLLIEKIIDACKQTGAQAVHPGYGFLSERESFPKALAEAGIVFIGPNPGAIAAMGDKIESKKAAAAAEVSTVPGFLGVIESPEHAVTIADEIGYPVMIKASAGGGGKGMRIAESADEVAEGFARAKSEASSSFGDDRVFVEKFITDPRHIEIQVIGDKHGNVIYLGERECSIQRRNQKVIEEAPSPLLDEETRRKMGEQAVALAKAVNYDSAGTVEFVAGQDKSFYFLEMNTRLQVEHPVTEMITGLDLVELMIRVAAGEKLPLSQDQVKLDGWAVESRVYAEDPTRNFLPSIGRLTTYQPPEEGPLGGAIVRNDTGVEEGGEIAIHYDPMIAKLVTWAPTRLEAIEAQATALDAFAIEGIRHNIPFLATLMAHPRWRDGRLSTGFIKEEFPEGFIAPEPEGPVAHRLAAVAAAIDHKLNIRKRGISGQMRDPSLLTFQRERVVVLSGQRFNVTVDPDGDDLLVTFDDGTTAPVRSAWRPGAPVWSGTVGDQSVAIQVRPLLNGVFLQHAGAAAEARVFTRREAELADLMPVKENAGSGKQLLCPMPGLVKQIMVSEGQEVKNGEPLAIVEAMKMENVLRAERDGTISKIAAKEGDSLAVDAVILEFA

[2] = molecular target: T2, malonyl-CoA reductase from Chloroflexus aurantiacus (MCRCa), SEQ ID NO: 8 (Chloroflexus aurantiacus, UniProt Q6QQP7); experiment: MCRCa activity for conversion of tartronyl-CoA into glycerate (reactions 4# and 5), NADPH oxidation; details: FIG. 8D and Table 5; 37° C., pH 7.5, 0.4 mM NADPH; n=3
T2 sequence (Q6QQP7 1-1220): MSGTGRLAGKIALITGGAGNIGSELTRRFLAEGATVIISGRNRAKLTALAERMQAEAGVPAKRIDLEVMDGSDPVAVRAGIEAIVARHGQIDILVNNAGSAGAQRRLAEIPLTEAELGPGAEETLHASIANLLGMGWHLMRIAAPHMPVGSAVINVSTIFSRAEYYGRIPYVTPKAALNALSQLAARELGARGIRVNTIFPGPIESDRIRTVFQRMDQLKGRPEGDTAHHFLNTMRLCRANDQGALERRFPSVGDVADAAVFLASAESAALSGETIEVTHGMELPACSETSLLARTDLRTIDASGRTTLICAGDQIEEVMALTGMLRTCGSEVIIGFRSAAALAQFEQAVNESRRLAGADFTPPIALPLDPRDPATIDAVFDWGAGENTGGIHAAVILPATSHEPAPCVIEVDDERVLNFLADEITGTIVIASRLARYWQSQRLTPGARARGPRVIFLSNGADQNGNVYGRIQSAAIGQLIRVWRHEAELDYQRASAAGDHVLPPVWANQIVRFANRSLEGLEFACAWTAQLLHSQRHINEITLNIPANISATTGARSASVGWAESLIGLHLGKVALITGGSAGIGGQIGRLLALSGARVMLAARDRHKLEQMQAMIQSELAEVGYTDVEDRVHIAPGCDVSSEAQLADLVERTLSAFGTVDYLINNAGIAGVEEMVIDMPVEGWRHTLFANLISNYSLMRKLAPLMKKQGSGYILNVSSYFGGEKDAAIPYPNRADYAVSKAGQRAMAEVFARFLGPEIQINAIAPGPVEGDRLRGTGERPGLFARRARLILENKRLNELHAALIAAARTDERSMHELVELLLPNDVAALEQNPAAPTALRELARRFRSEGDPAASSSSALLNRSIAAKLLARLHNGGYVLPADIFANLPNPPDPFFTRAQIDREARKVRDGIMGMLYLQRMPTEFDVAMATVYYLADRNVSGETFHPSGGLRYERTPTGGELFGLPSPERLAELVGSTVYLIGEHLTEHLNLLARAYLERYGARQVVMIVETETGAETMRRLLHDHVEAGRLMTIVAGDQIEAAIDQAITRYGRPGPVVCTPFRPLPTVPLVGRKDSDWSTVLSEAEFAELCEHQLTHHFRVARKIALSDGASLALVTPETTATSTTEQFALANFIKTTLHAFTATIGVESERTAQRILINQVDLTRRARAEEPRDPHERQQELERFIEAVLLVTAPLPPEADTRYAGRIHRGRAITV
Experimental: For the heterologous expression of the MCRCa protein (amino acid sequence is shown in SEQ ID NO: 8; corresponding nucleic acid sequence encoding the protein is depicted in SEQ ID NO: 7) the previously described pTRC-MCRCa plasmid (Kröger et al., 2011, Analytical biochemistry, 411(1), 100-105) was employed.
Cells were harvested at 10 000×g for 10 min and cell pellets were stored at −80° C. until purification of enzymes. Cell pellets of MCRCa and MCRE overexpressing cells were resuspended in two-fold volume of buffer AStrep (50 mM Tris/HCl, 150 mM NaCl, pH 7.8) containing 0.1 mg mL^−1 DNAse I. The cell suspension was passed through a French pressure cell twice at a pressure of 137 MPa and centrifuged at 100 000×g and 4° C. for 1 h. The supernatant was filtered through a 0.45 μm syringe filter and loaded at a flow rate of 1 mL min^−1 onto a 1 mL StrepTrap™ HP column (GE healthcare) which had previously been equilibrated with 5 column volumes of buffer AStrep. The column was washed with 20 column volumes of buffer AStrep and the protein was eluted with buffer AStrep containing 3 mM desthiobiotin. […]
The kinetics of the MCRCa enzyme for enzymatically converting the substrate tartonyl-CoA into glycerate (via reactions 4# and 5 both catalyzed by MCRCa) were determined spectrophotometrically at 365 nm following the oxidation of NADPH. […]

[3] = system: malonyl-CoA reductase from Erythrobacter sp. NAP1 (MCRE), SEQ ID NO: 10; experiment: MCRE activity for conversion of tartronyl-CoA into glycerate (reactions 4# and 5), NADPH oxidation; details: 37° C., assay as for MCRCa; n=2

Structure (SMILES)	vmax [1]	vmax [2]	Km [3]	vmax [3]
CC(C)(COP(=O)(O)OP(=O)(O)OC[C@H]1O[C@@H](n2cnc3c(N)ncnc32)[C@H](O)[C@@H]1OP(=O)(O)O)[C@@H](O)C(=O)NCCC(=O)NCCSC(=O)CO [glycolyl-CoA]	1.5 ± 0.09 U mg^−1			
CC(C)(COP(=O)(O)OP(=O)(O)OC[C@H]1O[C@@H](n2cnc3c(N)ncnc32)[C@H](O)[C@@H]1OP(=O)(O)O)[C@@H](O)C(=O)NCCC(=O)NCCSC(=O)C(O)C(=O)O (stereo partly shown) [tartronyl-CoA]		0.6 ± 0.01 U mg^−1	180 ± 40 µM	0.23±0.01 U mg^−1
